Test results from patent publication US20050192261A1, “Methods and reagents for the treatment of immunoinflammatory disorders” (priority 2003, published 2005).
Where two headings read alike, the source gives them in different places.

Tested on: TNFα secretion in white blood cells from human buffy coat stimulated with phorbol 12-myristate 13-acetate and ionomycin
Experiment: TNFα secretion assay
Details: Homo sapiens; for inhibition at 2 µM: read-out: % inhibition of TNFα secretion, Ibudilast 2 μM; for inhibition at 4 µM: read-out: % inhibition of TNFα secretion, Ibudilast 4 μM; for inhibition at 8 µM: read-out: % inhibition of TNFα secretion, Ibudilast 8 μM
[1] = Bromodiphenhydramine HCl μM r5-r13: 0,0.21,0.43,0.85,1.7,3.4,6.8,14,27
[2] = Cyproheptadine HCl μM r5-r12: 0,0.24,0.48,0.96,1.9,3.9,7.7,15
[3] = Loratadine μM r5-r13: 0,0.2,0.41,0.82,1.6,3.3,6.5,13,26
[4] = Thiethylperazine Maleate μM r5-r13: 0,0.2,0.39,0.78,1.6,3.1,6.3,13,25

Method: Drugs were added to the indicated concentration. […] The plate was then washed again with 0.1% Tween 20/PBS. An HRP-luminescent substrate was added to each well, and the light intensity of each well was measured using a plate luminometer.

`CC(C)C(=O)c1c(C(C)C)nn2ccccc12` [Ibudilast] was tested, and the inhibition at 0.5 µM (read-out: % inhibition of TNFα secretion, Ibudilast 0.5 μM, Bromodiphenhydramine HCl μM r5-r13: 0,0.21,0.43,0.85,1.7,3.4,6.8,14,27) was 19%, the inhibition at 0.5 µM (read-out: % inhibition of TNFα secretion, Ibudilast 0.5 μM, Cyproheptadine HCl μM r5-r12: 0,0.24,0.48,0.96,1.9,3.9,7.7,15) was 20% and the inhibition at 0.5 µM (read-out: % inhibition of TNFα secretion, Ibudilast 0.5 μM, Loratadine μM r5-r13: 0,0.2,0.41,0.82,1.6,3.3,6.5,13,26) was 21%. For the same compound, the inhibition at 0.5 µM (read-out: % inhibition of TNFα secretion, Ibudilast 0.5 μM, Thiethylperazine Maleate μM r5-r13: 0,0.2,0.39,0.78,1.6,3.1,6.3,13,25) was 23%, the inhibition at 1 µM (read-out: % inhibition of TNFα secretion, Ibudilast 1 μM, Bromodiphenhydramine HCl μM r5-r13: 0,0.21,0.43,0.85,1.7,3.4,6.8,14,27) was 24% and the inhibition at 1 µM (read-out: % inhibition of TNFα secretion, Ibudilast 1 μM, Cyproheptadine HCl μM r5-r12: 0,0.24,0.48,0.96,1.9,3.9,7.7,15) was 23%. For the same compound, the inhibition at 1 µM (read-out: % inhibition of TNFα secretion, Ibudilast 1 μM, Loratadine μM r5-r13: 0,0.2,0.41,0.82,1.6,3.3,6.5,13,26) was 32%, the inhibition at 1 µM (read-out: % inhibition of TNFα secretion, Ibudilast 1 μM, Thiethylperazine Maleate μM r5-r13: 0,0.2,0.39,0.78,1.6,3.1,6.3,13,25) was 27% and the inhibition at 2 µM [1] was 36%. The inhibition at 2 µM [2] was 32%, the inhibition at 2 µM [3] was 35% and the inhibition at 2 µM [4] was 38%. It also gave an inhibition at 4 µM [1] of 43%, an inhibition at 4 µM [2] of 36% and an inhibition at 4 µM [3] of 39%. For the same compound, the inhibition at 4 µM [4] was 42%, the inhibition at 8 µM [1] was 41% and the inhibition at 8 µM [2] was 41%. The inhibition at 8 µM [3] was 43% and the inhibition at 8 µM [4] was 48%.
Compound `C[C@]12C=CC(=O)C=C1CC[C@@H]1[C@@H]2[C@@H](O)C[C@@]2(C)[C@H]1CC[C@]2(O)C(=O)CO` [Prednisolone, prednisolone] has an inhibition at 0.5 µM (read-out: % inhibition of TNFα secretion, Prednisolone 0.5 μM, Tripelennamine HCl μM r5-r13: 0,0.31,0.61,1.2,2.4,4.9,9.8,20,39) of 35%, an inhibition at 1 µM (read-out: % inhibition of TNFα secretion, Prednisolone 1 μM, Tripelennamine HCl μM r5-r13: 0,0.31,0.61,1.2,2.4,4.9,9.8,20,39) of 40% and an inhibition at 0.5 µM (read-out: inhibition of TNFα secretion, prednisolone 0.5 μM, azatadine maleate r5-r13: 0,0.27,0.54,1.1,2.1,4.3,8.6,17,34 μM) of 35%. It also gave an inhibition at 0.5 µM (read-out: inhibition of TNFα secretion, prednisolone 0.5 μM, bromodiphenhydramine HCl r5-r13: 0,0.21,0.43,0.85,1.7,3.4,6.8,14,27 μM) of 34%, an inhibition at 0.5 µM (read-out: inhibition of TNFα secretion, prednisolone 0.5 μM, chlorpheniramine maleate r5-r13: 0,0.2,0.4,0.8,1.6,3.2,6.4,13,26 μM) of 28% and an inhibition at 0.5 µM (read-out: inhibition of TNFα secretion, prednisolone 0.5 μM, clemizole HCl r5-r13: 0,0.22,0.43,0.86,1.7,3.5,6.9,14,28 μM) of 37%. It also gave an inhibition at 0.5 µM (read-out: inhibition of TNFα secretion, prednisolone 0.5 μM, doxylamine succinate r5-r13: 0,0.2,0.4,0.8,1.6,3.2,6.4,13,26 μM) of 32%, an inhibition at 0.5 µM (read-out: inhibition of TNFα secretion, prednisolone 0.5 μM, fexofenadine HCl r5-r13: 0,0.073,0.15,0.29,0.58,1.2,2.3,4.6,9.3 μM) of 45% and an inhibition at 0.5 µM (read-out: inhibition of TNFα secretion, prednisolone 0.5 μM, loratadine r5-r13: 0,0.2,0.41,0.82,1.6,3.3,6.5,13,26 μM) of 29%. For the same compound, the inhibition at 0.5 µM (read-out: inhibition of TNFα secretion, prednisolone 0.5 μM, meclizine HCl r5-r13: 0,0.32,0.63,1.3,2.5,5.1,10,20,41 μM) was 36%, the inhibition at 0.5 µM (read-out: inhibition of TNFα secretion, prednisolone 0.5 μM, promethazine HCl r5-r13: 0,0.24,0.49,0.97,1.9,3.9,7.8,16,31 μM) was 32% and the inhibition at 0.5 µM (read-out: inhibition of TNFα secretion, prednisolone 0.5 μM, pyrilamine maleate r5-r13: 0,0.19,0.38,0.76,1.5,3,6.1,12,24 μM) was 24%. For the same compound, the inhibition at 1 µM (read-out: inhibition of TNFα secretion, prednisolone 1 μM, azatadine maleate r5-r13: 0,0.27,0.54,1.1,2.1,4.3,8.6,17,34 μM) was 43%, the inhibition at 1 µM (read-out: inhibition of TNFα secretion, prednisolone 1 μM, bromodiphenhydramine HCl r5-r13: 0,0.21,0.43,0.85,1.7,3.4,6.8,14,27 μM) was 37% and the inhibition at 1 µM (read-out: inhibition of TNFα secretion, prednisolone 1 μM, cetrizine HCl r5-r13: 0,0.2,0.4,0.8,1.6,3.2,6.4,13,26 μM) was 40%. For the same compound, the inhibition at 1 µM (read-out: inhibition of TNFα secretion, prednisolone 1 μM, chlorpheniramine maleate r5-r13: 0,0.2,0.4,0.8,1.6,3.2,6.4,13,26 μM) was 39%, the inhibition at 1 µM (read-out: inhibition of TNFα secretion, prednisolone 1 μM, clemizole HCl r5-r13: 0,0.22,0.43,0.86,1.7,3.5,6.9,14,28 μM) was 40% and the inhibition at 1 µM (read-out: inhibition of TNFα secretion, prednisolone 1 μM, cyproheptadine HCl r5-r13: 0,0.24,0.48,0.96,1.9,3.9,7.7,15,31 μM) was 39%. It also gave an inhibition at 1 µM (read-out: inhibition of TNFα secretion, prednisolone 1 μM, doxylamine succinate r5-r13: 0,0.2,0.4,0.8,1.6,3.2,6.4,13,26 μM) of 35%, an inhibition at 1 µM (read-out: inhibition of TNFα secretion, prednisolone 1 μM, fexofenadine HCl r5-r13: 0,0.073,0.15,0.29,0.58,1.2,2.3,4.6,9.3 μM) of 45% and an inhibition at 1 µM (read-out: inhibition of TNFα secretion, prednisolone 1 μM, loratadine r5-r13: 0,0.2,0.41,0.82,1.6,3.3,6.5,13,26 μM) of 40%. It also gave an inhibition at 1 µM (read-out: inhibition of TNFα secretion, prednisolone 1 μM, meclizine HCl r5-r13: 0,0.32,0.63,1.3,2.5,5.1,10,20,41 μM) of 44%, an inhibition at 1 µM (read-out: inhibition of TNFα secretion, prednisolone 1 μM, promethazine HCl r5-r13: 0,0.24,0.49,0.97,1.9,3.9,7.8,16,31 μM) of 39% and an inhibition at 1 µM (read-out: inhibition of TNFα secretion, prednisolone 1 μM, pyrilamine maleate r5-r13: 0,0.19,0.38,0.76,1.5,3,6.1,12,24 μM) of 31%. The inhibition at 1 µM (read-out: inhibition of TNFα secretion, prednisolone 1 μM, thiethylperazine maleate r5-r13: 0,0.2,0.39,0.78,1.6,3.1,6.3,13,25 μM) was 39%, the inhibition at 0.5 µM (read-out: percent inhibition of TNFα secretion, Prednisolone 0.5 μM, Bromodiphenhydramine HCl μM r5-r13: 0,0.21,0.43,0.85,1.7,3.4,6.8,14,27) was 34% and the inhibition at 0.5 µM (read-out: percent inhibition of TNFα secretion, Prednisolone 0.5 μM, Clemizole μM r5-r13: 0,0.22,0.43,0.86,1.7,3.5,6.9,14,28) was 37%. The inhibition at 0.5 µM (read-out: percent inhibition of TNFα secretion, Prednisolone 0.5 μM, Loratadine μM r5-r13: 0,0.2,0.41,0.82,1.6,3.3,6.5,13,26) was 29%, the inhibition at 0.5 µM (read-out: percent inhibition of TNFα secretion, Prednisolone 0.5 μM, Promethazine HCl μM r5-r13: 0,0.24,0.49,0.97,1.9,3.9,7.8,16,31) was 32% and the inhibition at 1 µM (read-out: percent inhibition of TNFα secretion, Prednisolone 1 μM, Bromodiphenhydramine HCl μM r5-r13: 0,0.21,0.43,0.85,1.7,3.4,6.8,14,27) was 37%. It also gave an inhibition at 1 µM (read-out: percent inhibition of TNFα secretion, Prednisolone 1 μM, Clemizole μM r5-r13: 0,0.22,0.43,0.86,1.7,3.5,6.9,14,28) of 40%, an inhibition at 1 µM (read-out: percent inhibition of TNFα secretion, Prednisolone 1 μM, Cyproheptadine μM r5-r13: 0,0.24,0.48,0.96,1.9,3.9,7.7,15,31) of 39% and an inhibition at 1 µM (read-out: percent inhibition of TNFα secretion, Prednisolone 1 μM, Loratadine μM r5-r13: 0,0.2,0.41,0.82,1.6,3.3,6.5,13,26) of 40%. The inhibition at 1 µM (read-out: percent inhibition of TNFα secretion, Prednisolone 1 μM, Promethazine HCl μM r5-r13: 0,0.24,0.49,0.97,1.9,3.9,7.8,16,31) was 39% and the inhibition at 1 µM (read-out: percent inhibition of TNFα secretion, Prednisolone 1 μM, Thiethylperazine μM r5-r13: 0,0.2,0.39,0.78,1.6,3.1,6.3,13,25) was 39%.
